Data published in patent US20220151921A1, “MONOCYTE-SELECTIVE DRUG DELIVERY SYSTEM USING SINGLE-WALLED CARBON NANOTUBES TO INDUCE EFFEROCYTOSIS” (The Board of Trustees of the Leland Stanford Junior …, priority 2019, published 2022).

What was measured:
[1] = target: SHP-1 (Homo sapiens, UniProt P29350); settings: cited from earlier work
[2] = TPI release assay; type: physicochemical; settings: PBS pH 5.5 and 6.5, carbonate buffer pH 9, through day 7
Description: TPI release Assay. We conducted assays to evaluate TPI release from SWNTs in carbonate buffer (pH 9) and PBS buffer (pH 6.5 and 5.5). SWNT-TPI (200 μL, 16.5 TPI molecules/SWNT on average) was added to MINI Dialysis Devices (MWCO: 20K) and the volume of release medium was 3 mL. At fixed timepoints from 1 day to 7 days, 2 μL of the outlet medium was removed to test the rate of TPI release. The cumulative drug release (CDR) percentage was calculated by the following equation: CDR (%)=Wreleased/Wloaded×100% Here, CDR represents the cumulative drug release percentage, Wreleased represents the mass of released TPI in the release media, Wloaded represents the total mass of TPI. TPI release in serum (20% Fetal Bovine Serum (FBS) in Phosphate-buffered saline (PBS)): the timepoints, sample volume, and calculation methods were identical to the above.

[3] = tested on: RAW 264.7 cells; experiment: Cell proliferation assay (modified MTT); type: cell-based, murine
Description: Cell Proliferation Assay. A modified MTT (3-[4,5-dimethyl-thiazol-2-yl]-2,5-diphenyltetrazolium bromide) assay was performed to analyze macrophage proliferation. RAW 264.7 cells were plated at 25,000 cells/well in a 96-well plate grown overnight at 37°C., and serum-starved for the next 24 hrs. Cells were stimulated with 10% FBS for 24 hrs with SWNTs (4 nM), SWNT-TPI (TPI: 25 nM and 50 nM), or TPI (25 nM), and then incubated with 10 μL of MTT AB solution (Millipore, Billerica) for 2 hr. 100 μL of acidic isopropanol (0.04N HCl) was added to each well and the absorbance was measured at 570 nm (reference wavelength 650 nm) on an ELISA plate reader a SpectraMax 190 Microplate Reader (Molecular Devices). Statistical analysis Statistical differences were determined by one-way ANOVA, and results were expressed as means±SE. p-value<0.05 and p-value<0.01 were considered to indicate statistical significance. Statistical analyses were performed using GraphPad Prism 7 (GraphPad Inc.).

SHP-1, sequence (P29350 whole entry): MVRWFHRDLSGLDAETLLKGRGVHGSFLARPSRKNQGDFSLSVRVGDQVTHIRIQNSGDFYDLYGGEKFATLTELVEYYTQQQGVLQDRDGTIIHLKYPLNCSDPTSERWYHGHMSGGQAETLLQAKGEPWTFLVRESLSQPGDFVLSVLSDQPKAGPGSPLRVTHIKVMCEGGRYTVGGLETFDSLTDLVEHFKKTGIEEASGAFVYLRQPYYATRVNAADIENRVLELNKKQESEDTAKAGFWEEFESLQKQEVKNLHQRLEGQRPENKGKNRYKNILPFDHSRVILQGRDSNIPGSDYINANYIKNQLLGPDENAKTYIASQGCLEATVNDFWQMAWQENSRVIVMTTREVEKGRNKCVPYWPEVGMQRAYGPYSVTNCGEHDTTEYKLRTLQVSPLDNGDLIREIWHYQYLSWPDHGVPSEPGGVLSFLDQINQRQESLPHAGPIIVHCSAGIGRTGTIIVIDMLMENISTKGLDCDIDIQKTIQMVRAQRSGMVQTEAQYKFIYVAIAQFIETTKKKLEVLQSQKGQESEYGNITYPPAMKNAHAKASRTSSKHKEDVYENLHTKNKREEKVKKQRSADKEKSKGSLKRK

Question: For `O=C1C=CC(=O)C(c2cc(Cl)ccc2Cl)=C1` [TPI, 2-(2,5-dichlorophenyl)-2,5-cyclohexadiene-1,4-dione], which IC50 [1] is on record?
Answer: 0.04 µM

Question: What about the “selectivity for SHP-1 over SHP-2” value [1] of the same compound?
Answer: selective toward SHP-1

Question: And the “effectiveness as SHP-1 inhibitor relative to sodium stibogluconate” value ([1]; versus sodium stibogluconate)?
Answer: over two orders of magnitude

Question: What about the “TPI release from SWNTs in saline buffers” value [2] of the same compound?
Answer: accelerated by progressively more acidic conditions

Question: And the RAW cell proliferation [3]?
Answer: no significant effect

Question: With `O=S(=O)(O)c1ccc2cc(N=Nc3cc(S(=O)(=O)O)c4cccnc4c3O)ccc2c1` [NSC87877] as the compound, how does the IC50 [1] read?
Answer: 0.355 µM
